Measured values reported in patent publication US7674954B2, “DNA constructs that contain Helianthus annuus Hahb-10 gene coding sequence, method for generating plants with a shortened life cycle and a high tolerance to herbicidal compounds and transgenic plants with that sequence” (Universidad Nacional del Litoral, priority 2006, dated 2010).

What was measured:
[1] = test system: non-transformed (wild-type) Arabidopsis plants; test: Stem elongation after gibberellin spraying, non-transformed plants; assay type: in vivo, Arabidopsis thaliana
Description: (§1) Stem height was measured with a ruler in non transformed (1) or 35S-Hahb10 transgenic plants (2: line A; 3: line B and 4: line C). Grey bars represent three transgenic lines and white bars represent wild-type plants. Right series in each panel represent GA3 treated plants while left series represent their non-treated counterparts. […] Arabidopsis transgenic or wild-type plants were grown under normal illumination conditions for 15 days. After this, the plants were sprayed with 200 μM GA3. This treatment was repeated at day 25. Stem length was measured in 20- and 30-day-old plants with a ruler. […] In order to investigate the response of Hahb-10 overexpressing lines to this hormone, we treated plants with 200 μM gibberellins as described above.

[2] = test system: Hahb-10 transcript levels; test: Northern blot of Hahb-10 transcript levels in treated sunflower seedlings; assay type: in vivo, Helianthus annuus
Description: 2A: Total RNA samples (20 μg each) extracted from 4-day-old seedlings subjected to different treatments as described later were hybridized with a ^32P-labeled Hahb-10 cDNA specific probe (A, upper panel). The same filter was hybridized with an rRNA probe as a control for RNA loading and transfer. Spots obtained with the specific probe were quantified in reference to their rRNA using Image Pro Plus software. […] Quantitation of the signals has been done taking as standard value the signal obtained in these seedlings because the signal obtained in control seedlings was almost not detectable by the software used for this purpose. 2B: Total RNA samples (20 μg each) extracted from 7-day-old seedlings grown in normal illumination conditions (lane 1), in the dark (lane 2), or under continuous illumination at 40 cm from the light source applied to 4-day-old seedlings germinated in the dark during 3 additional days (lane 3) were analyzed by electrophoresis, transferred onto nylon membranes and hybridized with a ^32P-labelled Hahb-10 cDNA specific probe (upper panel). The same filter was hybridized with an rRNA probe as a control for RNA loading and transfer (lower panel). […]

[3] = test system: 35S-Hahb10 transgenic Arabidopsis plants; test: Stem elongation after gibberellin spraying, Hahb-10 overexpressing plants; assay type: in vivo, Arabidopsis thaliana
Description: as §1

[4] = test system: transgenic Arabidopsis thaliana expressing the Hahb-10 gene; test: Herbicide (methyl viologen) spraying, Hahb-10 transgenic plants; assay type: in vivo; settings: 10 to 30 μM methyl viologen sprayed on 21-day-old plants; three independent transgenic lines; dose-dependent
Description: (§2) Treatments with the herbicide Paraquat were carried out by growing transgenic and wild-type 21-day-old plants under normal conditions and spraying them with methyl viologen at concentrations of 10, 20 or 30 μM.
(§3) In order to study the effect of Hahb-10 overexpression on the tolerance to herbicides, transgenic and wild-type 21-day-old Arabidopsis thaliana were grown under normal conditions and were sprayed with methyl viologen at concentrations of 10, 20 or 30 μM. Once sprayed, they were left at the same illumination and temperature conditions for 24 hours and, at that time, leaf impairment was easily observable. One week after MV treatment, chlorophyll content in the leaves from both genotypes was analyzed. Plants were allowed to recover for three days and the percentage of survivors, either wild-type or transgenic ones expressing the Hahb-10 gene, was recorded.

[5] = test system: wild-type Arabidopsis thaliana; test: Herbicide (methyl viologen) spraying, non-transformed plants; assay type: in vivo; settings: 10 to 30 μM methyl viologen sprayed on 21-day-old plants, correlating to concentration
Description: as §2, §3

With C=C1C[C@]23C[C@@]1(O)CC[C@H]2[C@@]12C=C[C@H](O)[C@@](C)(C(=O)O1)[C@H]2[C@@H]3C(=O)O [gibberellins, gibberellic acid] the “increase in stem elongation with respect to non-treated controls” value ([1]; 200 μM gibberellins sprayed, 5 days after the first treatment (20-day-old plants), non-transformed plants) was 3.7 fold, the “stem elongation induction on average” value ([1]; 200 μM gibberellins, after the second treatment (30-day-old plants), wild-type plants) was 1.5 fold and the “Hahb-10 transcript levels raised with respect to the heat-shock treatment” value ([2]; 100 μM gibberellic acids, Northern blot normalised to rRNA) was 5 fold. For the same molecule, the “increase in stem length with respect to non-treated controls” value ([3]; 200 μM gibberellins sprayed, 5 days after the first treatment (20-day-old plants)) was 1.6 fold and the “stem elongation induction on average” value ([3]; 200 μM gibberellins, after the second treatment (30-day-old plants)) was 1.2 fold.

In the case of C[n+]1ccc(-c2cc[n+](C)cc2)cc1 [methyl viologen], the “effect of herbicide treatment on plants” value [4] was “resistant” and the “effect of herbicide treatment on plants” value [5] was “dramatically affected”.

With OC[C@H]1O[C@@](CO)(O[C@H]2O[C@H](CO)[C@@H](O)[C@H](O)[C@H]2O)[C@@H](O)[C@@H]1O [sucrose] the “effect on Hahb-10 mRNA levels” value ([2]; sucrose 10% w/v, similar to slight enhancement by heat/cold shock, water stress, hypoxia) was “produced a similar effect”.
